pKi: −log10 of the molar value. Counter-ions that a name gives are not always drawn.
Key:
Rho Kinase = test: ROCK kinase inhibition assay (Rho Kinase Activity, isoform not given); type: biochemical; conditions: Table 15, mostly given as ranges
Protocol: All compounds were initially prepared as 10 mM stocks in anhydrous dimethylsulfoxide (DMSO). A 20 μl aliquot of the 10 mM solutions was transferred to individual wells in column 1 of a 96-well polypropylene microtiter plate (Corning #3363) and diluted with DMSO to give a final compound concentration of 4 mM. Test compounds were then serially diluted 1:5 in DMSO for an 11-point concentration response and further diluted in the assay buffer bringing all compound concentrations to a final range of 100 μM to […] in 2.5% DMSO. The assay was performed in white 96-well, flat-bottom, half-area, non-binding assay plate (Corning #3642) in assay buffer consisting of 20 mM HEPES (pH 7.5), 10 mM MgCl2*6H2O, 100 μM sodium orthovanadate, 0.05% CHAPS and 0.1% bovine serum albumin. A 10 μL aliquot of compound from each well of the intermediate dilution plate and 20 μL of a 2× substrate/enzyme solution containing acceptor substrate (800 nM RSK2 peptide […] (SEQ ID NO: 1)), ROCK2 enzyme (10 nM), or ROCK1 enzyme, and 1,4-Dithiothreitol (DTT, 2 uM) were added to all wells. The reaction was initiated by the addition of 10 μL of 4× stock solution ATP (2 μM). Reactions were thoroughly mixed manually, covered and allowed to incubate at room temperature for 75 min. Protein kinase activity was quantitated using Promega's KINASE-GLO™ luminescent Kinase Assay Kit according to the manufacturer's directions. ATP concentrations remaining in Test wells following the termination of the enzymatic reaction were compared against control wells containing equivalent amounts of DMSO containing no inhibitor (CTRL). […] Percent of Control (POC) values were determined for each concentration of compound tested according to the equation: POC=((Test well value−BKG)/(CTRL−BKG))*100
IC50 values were converted to K; […]

JAK2 = JAK2 (Homo sapiens, UniProt O60674); test: JAK kinase assay, JAK2 enzyme; type: biochemical; conditions: Table 15; in brackets in the activity cell; read-out: JAK2 activity;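 further: JAK2 kinase reaction run 75 min at room temperature, leftover ATP read by Kinase-Glo luminescence, 11-point dilution series in 2.5% DMSO, percent of inhibitor-free DMSO control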
Sequence of JAK2 (O60674 whole entry, species assumed): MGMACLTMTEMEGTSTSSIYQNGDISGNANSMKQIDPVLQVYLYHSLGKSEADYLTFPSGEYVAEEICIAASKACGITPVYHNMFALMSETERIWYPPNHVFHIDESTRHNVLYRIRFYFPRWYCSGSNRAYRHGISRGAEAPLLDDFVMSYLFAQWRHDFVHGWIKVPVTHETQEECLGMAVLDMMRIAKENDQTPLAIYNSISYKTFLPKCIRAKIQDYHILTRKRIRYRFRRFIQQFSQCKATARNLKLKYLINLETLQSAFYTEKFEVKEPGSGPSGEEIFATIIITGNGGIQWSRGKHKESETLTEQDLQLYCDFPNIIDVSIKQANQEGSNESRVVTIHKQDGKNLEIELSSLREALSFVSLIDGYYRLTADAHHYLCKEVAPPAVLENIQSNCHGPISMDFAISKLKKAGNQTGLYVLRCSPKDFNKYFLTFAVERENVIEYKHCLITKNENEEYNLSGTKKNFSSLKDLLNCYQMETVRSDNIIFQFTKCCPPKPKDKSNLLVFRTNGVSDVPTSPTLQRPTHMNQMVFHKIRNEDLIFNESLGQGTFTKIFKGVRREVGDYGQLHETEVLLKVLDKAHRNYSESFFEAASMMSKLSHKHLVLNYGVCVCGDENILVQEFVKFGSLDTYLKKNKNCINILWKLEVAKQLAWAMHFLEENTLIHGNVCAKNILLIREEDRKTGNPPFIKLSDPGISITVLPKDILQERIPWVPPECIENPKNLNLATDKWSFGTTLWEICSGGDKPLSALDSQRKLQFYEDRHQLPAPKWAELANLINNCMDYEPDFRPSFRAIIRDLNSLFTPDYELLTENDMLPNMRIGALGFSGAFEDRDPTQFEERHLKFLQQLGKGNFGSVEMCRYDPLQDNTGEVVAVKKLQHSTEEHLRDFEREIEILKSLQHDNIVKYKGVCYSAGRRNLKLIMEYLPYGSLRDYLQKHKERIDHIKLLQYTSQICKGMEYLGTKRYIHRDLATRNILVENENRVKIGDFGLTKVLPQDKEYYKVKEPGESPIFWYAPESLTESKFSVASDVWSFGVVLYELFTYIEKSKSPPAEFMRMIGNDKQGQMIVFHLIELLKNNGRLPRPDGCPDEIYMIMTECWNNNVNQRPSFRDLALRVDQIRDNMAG

| Structure (SMILES) | pKi (Rho Kinase) | pKi (JAK2) |
| --- | --- | --- |
| O=C(Nc1ccc2cnccc2c1)C1CC1c1ccccc1 (centres unmarked) | 7.89 to 8.30 |  |
| O=C(Nc1ccc2cnccc2c1)C1CC1c1ccc(COCc2ccccc2)cc1 (centres unmarked) | 6.22 to 6.46 |  |
| O=C1CC(c2ccccc2)CN1c1ccc2cnccc2c1 (centres unmarked) | 5.87 to 6.19 |  |
| O=C(Nc1ccc2cnccc2c1)[C@@H]1C[C@H]1c1ccc(S(=O)(=O)N2CCNCC2)cc1 (racemic) [Example E248H, trans)-N-(isoquinolin-6-yl)-2-(4-(piperazin-1-ylsulfonyl)phenyl) cyclopropane-1-carboxamide dihydrochloride] | 7.30 to 7.52 |  |
| O=C(Nc1ccc2cnccc2c1)[C@@H]1C[C@H]1c1ccc(S(=O)(=O)Nc2ccccc2)cc1 (relative stereo) [Example E247A, trans-N-(isoquinolin-6-yl)-2-(4-(N-phenylsulfamoyl)phenyl) cyclopropane-1-carboxamide] | 6.46 to 7.15 |  |
| O=C(Nc1ccc2cnccc2c1)[C@@H]1C[C@H]1c1ccc(S(=O)(=O)NCC2CCNCC2)cc1 (relative stereo) [Example E248D, trans-N-(isoquinolin-6-yl)-2-(4-(N-(piperidin-4-ylmethyl)sulfamoyl)phenyl) cyclopropane-1-carboxamide dihydrochloride] | 8.05 to 8.30 |  |
| O=C(Nc1ccc2cncc(Cl)c2c1)[C@@H]1C[C@H]1c1ccc(S(=O)(=O)NC[C@H]2CCCNC2)cc1 [E250E*] | 7.96 to 8.05 |  |
| O=C(NCc1ccc(OC(F)(F)F)cc1)c1ccc(C2CC2C(=O)Nc2ccc3cnccc3c2)cc1 (centres unmarked) [Example E15.1] | 6.96 to 7.19 |  |
| CC(C)(C)OC(=O)N1CCCC(CNC(=O)c2ccc(C3CC3C(=O)Nc3ccc4cnccc4c3)cc2)C1 (centres unmarked) [Example E30.1] | 7.43 to 8.00 |  |
| O=C(NCC1CCCNC1)c1ccc(C2CC2C(=O)Nc2ccc3cnccc3c2)cc1 (centres unmarked) [Example E30.2] | 8.10 to 9.00 |  |
| O=C(Nc1ccc(Oc2ccccc2)cc1)c1ccc(C2CC2C(=O)Nc2ccc3cnccc3c2)cc1 (centres unmarked) [Example E39.1] | 6.96 to 7.12 |  |
| O=C(NCc1ccccc1)c1ccc([C@@H]2C[C@H]2C(=O)Nc2ccc3cnccc3c2F)cc1 [Example E115.1] | 9.00 to 10.00 |  |
| CC(C)(C)OC(=O)N1CCC(CNCc2ccc(C3CC3C(=O)Nc3ccc4cnccc4c3)cc2)CC1 (centres unmarked) [Example E162.1] | 6.22 to 6.70 |  |
| O=C(Nc1ccc2cnccc2c1)C1CC1c1ccc(CNCC2CCNCC2)cc1 (centres unmarked) [Example E162.2] | 6.52 to 6.90 |  |
| O=C(NCc1ccc2ccncc2c1)c1ccc(C2CC2C(=O)Nc2ccc3cnccc3c2)cc1F (centres unmarked) [Example E195.1] | 8.15 to 8.40 |  |
| CC(C)(C)OC(=O)N1CCC(CNC(=O)c2ccc(C3CC3C(=O)Nc3ccc4cnccc4c3)cc2F)CC1 (centres unmarked) [Example E195.2] | 9.00 to 9.40 |  |
| CC(C)(C)OC(=O)N1CCC(CNCc2ccc(C3CC(=O)N(c4ccc5cnccc5c4)C3)cc2)CC1 (centres unmarked) [Example E227.1] | 5.40 to 5.89 |  |
| O=C1CC(c2ccc(CNCC3CCNCC3)cc2)CN1c1ccc2cnccc2c1 (centres unmarked) [Example E227.2] | 6.22 to 6.52 |  |
| CC(C)(C)OC(=O)c1ccc(C2CC(=O)N(c3ccc4cnccc4c3)C2)cc1F (centres unmarked) [Example E230.1] | 5.03 |  |
| O=C(NCC1CCNCC1)c1ccc(C2CC(=O)N(c3ccc4cnccc4c3)C2)cc1 (centres unmarked) [Example E234.2] | 5.90 to 6.00 |  |
| O=C(Nc1ccc2cnccc2c1)[C@@H]1C[C@H]1c1ccc(S(=O)(=O)NC[C@@H]2CCCNC2)cc1 [Example E248F, trans-N-(isoquinolin-6-yl)-2-(4-(N—(((R)-piperidin-3-yl)methyl)sulfamoyl)phenyl)-cyclopropane-1-carboxamide dihydrochloride] | 8.30 to 8.52 |  |

Continued, values first:

| pKi (Rho Kinase) | pKi (JAK2) | Structure (SMILES) |
| --- | --- | --- |
| 8.22 to 9.30 | 6.22 to 6.60 | O=C(OCc1ccccn1)c1ccc([C@@H]2C[C@H]2C(=O)Nc2ccc3cnccc3c2)cc1 (racemic) [Example E99, trans-pyridin-2-ylmethyl 4-(2-(isoquinolin-6-ylcarbamoyl)cyclopropyl) benzoate] |
| 6.10 to 7.52 |  | O=C(NCc1cccc(F)c1)OCc1ccc([C@@H]2C[C@H]2C(=O)Nc2ccc3cnccc3c2)cc1 (relative stereo) [Example E142, trans-4-(2-(isoquinolin-6-ylcarbamoyl)cyclopropyl)benzyl (3-fluorobenzyl)carbamate] |
| 6.10 to 6.60 |  | O=C(Nc1ccc2cnccc2c1)[C@@H]1C[C@H]1c1ccc(CNCc2cccnc2)cc1 (relative stereo) [Example E160, trans-N-(isoquinolin-6-yl)-2-(4-(((pyridin-3-ylmethyl)amino)methyl)phenyl)cyclopropane-1-carboxamide] |
| 5.90 to 6.19 |  | O=C(OCc1ccccc1)c1cccc([C@@H]2C[C@H]2C(=O)Nc2ccc3cnccc3c2)c1 (relative stereo) [Example E170, trans-benzyl 3-(2-(isoquinolin-6-ylcarbamoyl)cyclopropyl)benzoate] |
| 6.52 to 7.22 |  | O=C(Nc1ccc2cnccc2c1)[C@@H]1C[C@H]1c1ccc(OCc2ccccc2)cc1 (relative stereo) [Example E210, trans-2-(4-(benzyloxy)phenyl)-N-(isoquinolin-6-yl)cyclopropane-1-carboxamide] |
| 8.15 to 9.00 |  | O=C(NCc1ccncc1)c1ccc(C2CC2C(=O)Nc2ccc3cnccc3c2)cc1 (centres unmarked) [Example E10] |
| 7.37 to 8.52 |  | O=C(NCc1ccc(Cl)cc1)c1ccc(C2CC2C(=O)Nc2ccc3cnccc3c2)cc1 (centres unmarked) [Example E14] |
| 8.30 to 9.00 |  | COc1ccc(CNC(=O)c2ccc(C3CC3C(=O)Nc3ccc4cnccc4c3)cc2)cc1 (centres unmarked) [Example E15] |
| 8.40 to 8.70 |  | O=C(NCc1cccs1)c1ccc(C2CC2C(=O)Nc2ccc3cnccc3c2)cc1 (centres unmarked) [Example E17] |
| 6.70 to 7.12 |  | Cc1nccc2cc(NC(=O)C3CC3c3ccc(C(=O)NCc4cccnc4)cc3)ccc12 (centres unmarked) [Example E36] |
| 9.52 to 9.82 |  | O=C(NCc1ccncc1)c1cccc(C2CC2C(=O)Nc2ccc3cnccc3c2)c1 (centres unmarked) [Example E174] |
| 7.00 to 7.15 |  | O=C(NCc1ccc(Cl)cc1)c1ccc(C2CC2C(=O)Nc2ccc3cnccc3c2)c(F)c1 (centres unmarked) [Example E195] |
| 4.82 to 5.10 |  | C[C@@H]1OC(c2ccc(C3CC(=O)N(c4ccc5cnccc5c4)C3)cc2)O[C@H]1C (stereo partly drawn) [Example E223, 4-(4-((4S,5S)-4,5-dimethyl-1,3-dioxolan-2-yl)phenyl)-1-(isoquinolin-6-yl)pyrrolidin-2-one] |
| 5.17 to 5.59 |  | O=Cc1ccc(C2CC(=O)N(c3ccc4cnccc4c3)C2)cc1 (centres unmarked) [Example E224, 4-(1-(isoquinolin-6-yl)-5-oxopyrrolidin-3-yl)benzaldehyde] |
| 5.66 to 5.87 |  | O=C1CC(c2ccc(CNCc3cccnc3)cc2)CN1c1ccc2cnccc2c1 (centres unmarked) [Example E225, 1-(isoquinolin-6-yl)-4-(4-(((pyridin-3-ylmethyl)amino)methyl)phenyl)pyrrolidin-2-one] |
| 5.03 to 5.72 |  | O=C1CC(c2ccc(CNCc3ccccn3)cc2)CN1c1ccc2cnccc2c1 (centres unmarked) [Example E226] |
| 4.60 to 4.85 |  | CC(C)(C)OC(=O)c1ccc(C2CC(=O)N(c3ccc4cnccc4c3)C2)cc1 (centres unmarked) [Example E230, tert-butyl 4-(1-(isoquinolin-6-yl)-5-oxopyrrolidin-3-yl)benzoate] |
| 4.17 to 4.47 |  | O=C(O)c1ccc(C2CC(=O)N(c3ccc4cnccc4c3)C2)cc1 (centres unmarked) [Example E231, 4-(1-(isoquinolin-6-yl)-5-oxopyrrolidin-3-yl)benzoic acid] |
| 4.80 to 5.19 |  | O=C(NCc1cccnc1)c1ccc(C2CC(=O)N(c3ccc4cnccc4c3)C2)cc1 (centres unmarked) [Example E232, 4-(1-(isoquinolin-6-yl)-5-oxopyrrolidin-3-yl)-N-(pyridin-3-ylmethyl)benzamide] |

From patent US10858339B2, “Aryl cyclopropyl-amino-isoquinolinyl amide compounds” (priority 2017, dated 2020)
